Data set [1] can be described thus: Solubility (stated property). It counts as physicochemical.
The test system of data set [2] is MDA-MB-231 cells. Nature of the data set: Dose response assay, ATPlite viability, four days. The format is cell-based, human. The following applies: Homo sapiens, 96 h; MDA-MB-231, four days of treatment, ATP viability. The protocol:
(§1) Cells were seeded in white 96-well plates (Costar, Tewksbury, MA, USA) in 100 μL of their respective media at varying densities to achieve 80% to 90% confluency after five days in culture. The compounds dissolved in DMSO were diluted in their corresponding media containing 2% FBS and an EP Motion 5075 (Eppendorf North America, Hauppauge, NY, USA) liquid handler was utilized to perform a serial dilution. […] After the cells were cultured for 24 hours, the media were aspirated and the cells were treated with the compounds and vehicle controls in triplicate. After four days of treatment, viability was determined utilizing the ATPlite 1step assay system (Perkin Elmer, Waltham, MA, USA) according to the manufacturer's instructions. Luminescence measurements were acquired utilizing a Perkin Elmer 2104 EnVision plate reader. Raw luminescence values were normalized to the DMSO vehicle control wells.
In general terms: Cellular ATP, detected with luciferase, serves as a proxy for viable cell number.

The test system of data set [3] is PE1007070 cells. The data set can be described thus: Dose response assay, ATPlite viability, four days. It counts as cell-based, human. The following applies: Homo sapiens, 96 h, PE1007070, four days of treatment, ATP viability. The protocol:
as §1

Data set [4] concerns hTERT-HMEC cells. Nature of the data set: Dose response assay, ATPlite viability, four days. The format is cell-based, human. The protocol:
as §1

Data set [5] deals with T47D cells. The data set can be described thus: Dose response assay, ATPlite viability, four days. The following applies: Homo sapiens, 96 h, four days of treatment, ATP viability. The format is cell-based, human. The protocol: as §1
Data set [6] relates to MCF-7 cells. Nature of the data set: Dose response assay, ATPlite viability, four days. It counts as cell-based, human. The following applies: Homo sapiens, MCF7, 96 h; MCF-7, four days of treatment, ATP viability. The protocol: as §1
Data set [7] has as its system PE1008032 cells. The data set can be described thus: Dose response assay, ATPlite viability, four days. It counts as cell-based, human. The following applies: Homo sapiens, 96 h, PE1008032, four days of treatment, ATP viability. The protocol: as §1
Data set [8] relates to PE904557a cells. Nature of the data set: Dose response assay, ATPlite viability, four days. The format is cell-based, human. The following applies: Homo sapiens, 96 h, four days of treatment, ATP viability, N/A = data could not be fitted. As to the method: as §1
Data set [9] has as its system PE904557a, PE900642a and PE1100025 cells. Nature of the data set: Live/dead assay, three-dimensional Matrigel culture. It counts as cell-based, human. As to conditions: 30 or 60 μM, five days. The protocol:
For the three dimensional culture experiments, PE904557a, PE900642a and PE11000025 cells were seeded in a 24-well ultra low adhesion plate (Costar) at approximately 2 × 10^6 cells/mL in mammary epithelial cell growth medium (MEGM) complete media (Lonza, Basel Switzerland) and were cultured overnight. The resulting aggregates were separated from single cells by differential centrifugation. Next, 20 μL of growth factor reduced Matrigel (BD Biosciences) was added to each well of a black walled clear bottom 24-well plate (Greiner Bio-one) and was allowed to solidify to form a base layer. The aggregates were then suspended in Matrigel on ice and approximately 300 aggregates in 40 μL were added to each well. After the Matrigel solidified, modified M87 media was added to each well and the cells were cultured overnight. The media were subsequently aspirated and the cells were treated with 30 or 60 μM C-6 or the corresponding 0.06% (v/v) DMSO vehicle control. After culturing for five days, the viability and cytotoxicity were determined utilizing the Live/dead assay (Life Technologies) in the same manner as described above. Multiple Z-planes of the organoids were subsequently imaged utilizing an IX81 microscope (Olympus) running Slide Book 5.0 software (Intelligent Imaging Innovations).

Data set [10] relates to PE1007070 cells. The data set can be described thus: Live/dead assay, monolayer. The format is cell-based, human. The following applies: 20 μM, five days, vs DMSO. As to the method: (§2) The hTERT-HMEC and PE1007070 cells were seeded in black wall clear bottom 96-well plates (Greiner Bio-one, Monroe, NC, USA) in 100 μL of modified M87 media at varying densities to achieve 80% to 90% confluency at the end of the assay. After 24 hours, the media were aspirated and the cells were treated with 20 μM C-6 or the corresponding 0.02% (v/v) DMSO vehicle control. After culturing for five days, the viability and cytotoxicity was determined with the Live/dead assay (Life Technologies) according to the manufacturer's instructions. Briefly, the media were aspirated and the cells were treated with 4 μM Calcein-AM and 8 μM Ethidium homodimer-1 diluted in (D)MEM/F12 for 30 minutes at 37°C. Subsequent imaging was performed with an IX81 microscope (Olympus, Center Valley, PA, USA) running Slide Book 5.0 software (Intelligent Imaging Innovations, Denver, CO, USA).

For data set [11], the system named is hTERT-HMEC cells. The data set can be described thus: Live/dead assay, monolayer. The format is cell-based, human. The following applies: 20 μM, five days. The protocol:
as §2

As for `COc1cc(OC)cc(C(C)c2ccc(NC(=O)OC(C)(C)C)cc2)c1` (centres unmarked) [C-6], the solubility result in [1] is reported as “poor solubility”. Also, the EC50 in [2] came to 10.5 µM; in data set [3], 24.4 µM; in [5], 8.29 µM; in [6], 11 µM; in data set [7], 33.3 µM; in data set [8], 75.7 µM. Moreover, the effect on viability entry in data set [4] is listed as “did not significantly reduce the viability”. Also, the “cell death in three-dimensional culture” value in data set [9] is “able to induce cell death”. Moreover, the “number of dead cells” value in data set [10] is reported as “led to an increase in the number of dead cells”. Moreover, in [11], the “morphology and dead (ethidium positive) cells” value is reported as “did not induce a gross morphological phenotype in the hTERT-HMECs or a significant increase in dead (ethidium bromide positive) cells”.

Usually EC50 stands for the concentration that produces a half-maximal response. Read a low EC50 as greater potency.
